*1 amine or outer side, *2 acyl side, *3 side chain or, on linkers, in order; H or OH if unused. Where a SMILES comes first, the peptide text is derived from it. [ ]: non-standard residue; d: D form. The star is where a group is joined. X2 = CC=C(N[*:1])C(=O)[*:2]; dOrn = NCCC[C@@H](N)C(=O)O; Valol = CC(C)[C@@H](CO)N*; X1 = CCC(C)C(O)C(=O)*
Assays:
[1] = test system: HepG2 cells; conditions: for HepG2 CC50: 24 h
Experimental: The cytotoxicity of brevibacillins was evaluated on HepG2 cells by using the XTT (Cell Proliferation Kit XTT, AppliChem) assay ([Roehm et al., 1991]). HepG2 cells [in Dulbecco’s modified Eagle’s medium (DMEM) supplemented with 10% fetal bovine serum] were seeded into 96-well plates and incubated at 37°C with 5% CO2. After 24 h, the medium was replaced with a fresh medium (DMEM with 2% FBS, 100 μl per well) containing different concentrations of brevibacillins ([Zhao et al., 2017]). After 24 h of incubation, the XTT reagent was added to the cultures according to the manufacturer’s instructions, and the plates were incubated at 37°C for 2 h with 5% CO2. Subsequently, the absorbance values were measured by using a Varioskan^TM LUX multimode microplate reader (Thermo Fisher Scientific) at 485 nm (reference, 690 nm). The 50% cell toxicity (CC50) of peptides was calculated as described in a previous study ([Reed and Muench, 1938]).
(§1) GraphPad Prism 7.0 was used to fit the data of hemolytic assay and cytotoxicity assay in Figure 3. The experiments were conducted in triplicate, and data are presented as the mean value of triplicate experiments. Data Explorer Software was used to analyze the MALDI-TOF data; Thermo Scientific Xcalibur software was used to analyze the LC–MS/MS data. The statistical significance of the data was assessed using Duncan’s multiple-range test with the software SPSS Statistics 19.0. P-values less than 0.05 were considered to be statistically significant.

[2] = test system: human erythrocytes; assay: Hemolytic activity
Experimental: This assay was performed as per the method described in previous studies ([Ling et al., 2015]; [Li et al., 2018]). Briefly, erythrocytes were isolated from a healthy human volunteer donor (ordered from Sanquin, Netherlands^1) and washed with phosphate-buffered saline (PBS) three times. After that, peptides were added at final concentrations of 128, 64, 32, 16, 8, 4, 2, 1, and 0 mg/L in PBS containing 2% (v/v) erythrocytes. The cells were incubated at 37°C for 1 h and centrifuged for 5 min at 8,000 g. The supernatant was transferred to a 96-well plate, and the absorbance was measured at a wavelength of 450 nm with a Thermo Scientific Varioskan^TM LUX multimode microplate reader. The absorbance relative to the positive control, which was treated with 10% Triton X-100, was defined as the percentage of hemolysis. The 50% human blood cell hemolysis concentration (HC50) of peptides was calculated as described in previous studies ([Reed and Muench, 1938]).
as §1

[3] = cited from earlier work
Experimental: For cytotoxicity assays, HepG2 cells were incubated in the presence of brevibacillin concentrations ranging from 2 to 64 mg/L. After 24 h of incubation, cell viability was determined using an XTT kit.

For `CC=C(NC(=O)C(O)C(C)CC)C(=O)N[C@@H](CC(C)C)C(=O)N[C@H](CCCN)C(=O)N[C@H](C(=O)N[C@H](C(=O)N[C@H](C(=O)N[C@H](CCCCN)C(=O)N[C@H](C(=O)N[C@H](C(=O)N[C@@H](CCCCN)C(=O)N[C@H](Cc1ccc(O)cc1)C(=O)N[C@@H](CC(C)C)C(=O)N[C@H](CO)C(C)C)C(C)C)C(C)C)C(C)C)C(C)C)C(C)C` (stereo partly drawn) [brevibacillin 2V] (X1-[X2]L[dOrn]VVV[dK]VVK[dY]L-Valol), the “CC50 (HepG2) relative to MIC values against bacterial pathogens” value [1] was 23 fold, the “cytotoxicity to HepG2 cells at 32 mg/L” value [1] was “no cytotoxicity” and the “HepG2 CC50” value [1] was 45.49 ± 0.24 µg/mL. The “hemolytic activity at 128 mg/L” value ([2]; 128 mg/L, human erythrocytes, 37°C, 1 h) was “No hemolytic activity” and the “HC50 (concentration that causes 50% hemolysis of human red blood cells)” value ([2]; red cells of human, 1 h) was over 128 mg/L.

With `CC=C(NC(=O)C(O)C(C)CC)C(=O)N[C@@H](CC(C)C)C(=O)N[C@H](CCCN)C(=O)N[C@H](C(=O)N[C@H](C(=O)N[C@H](C(=O)N[C@H](CCCCN)C(=O)N[C@H](C(=O)N[C@H](C(=O)N[C@@H](CCCCN)C(=O)N[C@H](Cc1ccc(O)cc1)C(=O)N[C@@H](CC(C)C)C(=O)N[C@H](CO)C(C)C)C(C)C)[C@@H](C)CC)C(C)C)[C@@H](C)CC)[C@@H](C)CC` (stereo partly drawn) [brevibacillin I] (X1-[X2]L[dOrn]IIV[dK]IVK[dY]L-Valol) the “CC50 (HepG2) relative to MIC values against bacterial pathogens” value [1] was 2.5- to fivefold, the “cytotoxicity to HepG2 cells at 16 mg/L” value [1] was “all of the HepG2 cells were killed” and the “HepG2 CC50” value [1] was 7.38 ± 0.30 µg/mL. The “hemolytic activity at 64 mg/L” value [2] was “completely lysed”.

For bogorol, the CC50 [3] is listed as “below 8 mg/L”.
